From patent US12258327B2, “5-membered heteroaryl-containing aminopyridine compounds as EGFR inhibitors” (YUHAN CORPORATION, priority 2021, dated 2025)
Where two headings read alike, the source gives them in different places.

Legend:
[1] = target: EGFR wildtype (WT) (Homo sapiens, UniProt P00533); test: Biochemical EGFR kinase assay (Lance Ultra TR-FRET), wildtype
Method in brief: (§1)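 In this biochemical assay, phosphorylation after a one-hour room-temperature reaction was detected with europium-labelled anti-phosphopeptide antibody at 2 nM final concentration.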

[2] = target: EGFR del19/C797S (Homo sapiens, UniProt P00533, C797S/DEL746-750); test: Biochemical EGFR kinase assay (Lance Ultra TR-FRET), double mutant del19/C797S
Sequence of EGFR del19/C797S (P00533 with tags, fused parts or gaps DEL746-750/C797S): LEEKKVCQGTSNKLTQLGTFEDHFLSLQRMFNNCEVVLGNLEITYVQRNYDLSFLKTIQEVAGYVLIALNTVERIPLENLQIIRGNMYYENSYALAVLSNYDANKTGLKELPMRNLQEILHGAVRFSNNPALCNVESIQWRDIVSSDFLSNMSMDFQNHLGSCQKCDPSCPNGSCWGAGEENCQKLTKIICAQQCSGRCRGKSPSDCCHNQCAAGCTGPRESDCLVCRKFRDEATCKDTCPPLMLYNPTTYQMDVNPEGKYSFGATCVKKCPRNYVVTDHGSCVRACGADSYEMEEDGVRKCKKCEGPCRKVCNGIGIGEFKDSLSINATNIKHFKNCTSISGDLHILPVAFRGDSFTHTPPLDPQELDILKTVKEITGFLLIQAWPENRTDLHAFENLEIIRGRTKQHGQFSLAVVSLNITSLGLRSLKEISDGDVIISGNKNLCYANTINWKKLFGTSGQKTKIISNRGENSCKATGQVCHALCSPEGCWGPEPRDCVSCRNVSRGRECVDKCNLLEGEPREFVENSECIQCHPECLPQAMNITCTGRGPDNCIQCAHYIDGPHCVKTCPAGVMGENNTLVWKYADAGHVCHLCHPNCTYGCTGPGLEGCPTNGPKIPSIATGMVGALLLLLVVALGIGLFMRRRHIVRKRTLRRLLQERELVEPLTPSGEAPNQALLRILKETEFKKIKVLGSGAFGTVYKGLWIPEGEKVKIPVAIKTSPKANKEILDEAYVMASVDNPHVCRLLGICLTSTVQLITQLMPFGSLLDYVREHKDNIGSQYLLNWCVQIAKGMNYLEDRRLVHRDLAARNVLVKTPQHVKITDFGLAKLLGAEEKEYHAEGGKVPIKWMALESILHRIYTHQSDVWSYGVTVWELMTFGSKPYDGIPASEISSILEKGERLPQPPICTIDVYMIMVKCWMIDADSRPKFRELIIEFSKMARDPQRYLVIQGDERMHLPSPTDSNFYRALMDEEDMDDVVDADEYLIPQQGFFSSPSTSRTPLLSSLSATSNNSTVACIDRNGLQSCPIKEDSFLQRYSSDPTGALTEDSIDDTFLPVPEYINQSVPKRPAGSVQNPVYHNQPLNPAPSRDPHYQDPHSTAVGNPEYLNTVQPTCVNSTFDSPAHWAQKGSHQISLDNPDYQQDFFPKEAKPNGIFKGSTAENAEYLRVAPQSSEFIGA
Method in brief: as §1

[3] = target: EGFR L858R/T790M/C797S (Homo sapiens, UniProt P00533, C797S/L858R/T790M); test: Biochemical EGFR kinase assay (Lance Ultra TR-FRET), triple mutant L858R/T790M/C797S
Sequence of EGFR L858R/T790M/C797S (P00533 25-1210 T790M/C797S/L858R): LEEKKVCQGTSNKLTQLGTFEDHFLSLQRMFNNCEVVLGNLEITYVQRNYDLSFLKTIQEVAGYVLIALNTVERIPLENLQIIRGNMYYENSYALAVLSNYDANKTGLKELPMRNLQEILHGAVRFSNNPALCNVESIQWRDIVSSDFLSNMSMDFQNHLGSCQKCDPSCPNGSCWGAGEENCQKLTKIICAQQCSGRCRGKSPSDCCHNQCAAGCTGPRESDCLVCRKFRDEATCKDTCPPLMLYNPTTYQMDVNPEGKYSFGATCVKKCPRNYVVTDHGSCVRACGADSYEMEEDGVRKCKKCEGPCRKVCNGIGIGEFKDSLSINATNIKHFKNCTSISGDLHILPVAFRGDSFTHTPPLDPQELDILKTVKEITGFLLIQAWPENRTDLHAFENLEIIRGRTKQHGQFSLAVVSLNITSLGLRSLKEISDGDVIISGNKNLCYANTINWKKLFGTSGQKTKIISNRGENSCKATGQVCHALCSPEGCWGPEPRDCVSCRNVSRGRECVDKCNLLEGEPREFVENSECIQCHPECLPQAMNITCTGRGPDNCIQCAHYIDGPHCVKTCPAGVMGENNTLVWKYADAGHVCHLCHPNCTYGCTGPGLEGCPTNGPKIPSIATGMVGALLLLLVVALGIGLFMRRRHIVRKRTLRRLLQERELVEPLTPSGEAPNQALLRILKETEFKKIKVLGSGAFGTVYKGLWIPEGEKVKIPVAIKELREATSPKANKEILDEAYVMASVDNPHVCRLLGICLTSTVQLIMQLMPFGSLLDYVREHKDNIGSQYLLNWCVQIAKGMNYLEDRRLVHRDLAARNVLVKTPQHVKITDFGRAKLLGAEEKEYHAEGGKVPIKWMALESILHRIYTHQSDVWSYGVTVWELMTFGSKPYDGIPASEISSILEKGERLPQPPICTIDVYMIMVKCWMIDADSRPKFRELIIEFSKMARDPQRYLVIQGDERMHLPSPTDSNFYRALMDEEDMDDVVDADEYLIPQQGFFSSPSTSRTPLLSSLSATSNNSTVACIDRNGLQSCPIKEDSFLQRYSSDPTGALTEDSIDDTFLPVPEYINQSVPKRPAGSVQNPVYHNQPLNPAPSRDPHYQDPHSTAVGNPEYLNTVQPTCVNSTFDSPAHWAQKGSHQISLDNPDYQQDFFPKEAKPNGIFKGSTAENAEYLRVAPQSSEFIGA
Method in brief: as §1

[4] = target: EGFR L858R/C797S (Homo sapiens, UniProt P00533, C797S/L858R); test: Biochemical EGFR kinase assay (Lance Ultra TR-FRET), double mutant L858R/C797S
Method in brief: as §1

[5] = target: EGFR del19/T790M/C797S (Homo sapiens, UniProt P00533, C797S/DEL746-750/T790M); test: Biochemical EGFR kinase assay (Lance Ultra TR-FRET), triple mutant del19/T790M/C797S
Sequence of EGFR del19/T790M/C797S (P00533 with tags, fused parts or gaps DEL746-750/T790M/C797S): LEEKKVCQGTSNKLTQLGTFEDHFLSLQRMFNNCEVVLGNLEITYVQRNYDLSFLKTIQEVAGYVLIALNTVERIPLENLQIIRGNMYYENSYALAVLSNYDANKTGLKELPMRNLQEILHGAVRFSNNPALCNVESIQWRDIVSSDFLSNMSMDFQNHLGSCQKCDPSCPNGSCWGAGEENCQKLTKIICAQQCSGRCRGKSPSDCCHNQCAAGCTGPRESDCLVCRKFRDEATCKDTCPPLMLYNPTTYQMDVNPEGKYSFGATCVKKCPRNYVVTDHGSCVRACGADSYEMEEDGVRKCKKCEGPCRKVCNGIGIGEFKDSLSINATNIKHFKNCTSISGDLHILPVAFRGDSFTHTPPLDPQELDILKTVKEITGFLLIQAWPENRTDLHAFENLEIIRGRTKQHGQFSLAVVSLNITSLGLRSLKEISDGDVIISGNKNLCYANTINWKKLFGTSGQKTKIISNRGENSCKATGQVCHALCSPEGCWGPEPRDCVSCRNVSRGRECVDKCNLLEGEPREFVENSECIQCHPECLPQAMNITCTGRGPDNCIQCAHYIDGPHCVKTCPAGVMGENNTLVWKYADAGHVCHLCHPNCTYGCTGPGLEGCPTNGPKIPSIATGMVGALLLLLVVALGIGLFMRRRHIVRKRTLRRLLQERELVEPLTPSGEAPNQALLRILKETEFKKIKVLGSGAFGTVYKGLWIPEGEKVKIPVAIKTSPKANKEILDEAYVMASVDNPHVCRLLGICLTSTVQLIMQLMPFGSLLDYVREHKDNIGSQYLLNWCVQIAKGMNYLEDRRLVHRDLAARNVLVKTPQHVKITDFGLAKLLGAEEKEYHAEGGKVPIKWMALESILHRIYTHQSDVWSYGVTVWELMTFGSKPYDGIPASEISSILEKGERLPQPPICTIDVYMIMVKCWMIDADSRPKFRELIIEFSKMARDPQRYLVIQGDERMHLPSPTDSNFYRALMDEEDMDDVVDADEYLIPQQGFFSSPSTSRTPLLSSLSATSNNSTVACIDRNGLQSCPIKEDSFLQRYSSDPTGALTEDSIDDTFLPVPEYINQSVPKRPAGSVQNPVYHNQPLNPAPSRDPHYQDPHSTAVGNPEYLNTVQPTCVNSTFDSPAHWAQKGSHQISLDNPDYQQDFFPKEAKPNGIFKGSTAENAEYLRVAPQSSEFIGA
Method in brief: as §1

[6] = IC50 WT (nM) 100 μM ATP, 100 μM ATP
[7] = Km ATP, read-out: IC50 WT (nM) Km ATP
[8] = IC50 del19/C797S (nM) 100 μM ATP, 100 μM ATP
[9] = Km ATP, read-out: IC50 del19/C797S (nM) Km ATP
[10] = IC50 L858R/T790M/C797S (nM) 100 μM ATP, 100 μM ATP
[11] = Km ATP, read-out: IC50 L858R/T790M/C797S (nM) Km ATP
[12] = IC50 L858R/C797S (nM) 100 μM ATP, 100 μM ATP
[13] = Km ATP, read-out: IC50 L858R/C797S (nM) Km ATP
[14] = IC50 del19/T790M/C797S (nM) 100 μM ATP, 100 μM ATP
[15] = Km ATP, read-out: IC50 del19/T790M/C797S (nM) Km ATP

Sequence of EGFR wildtype (WT) (P00533 25-1210): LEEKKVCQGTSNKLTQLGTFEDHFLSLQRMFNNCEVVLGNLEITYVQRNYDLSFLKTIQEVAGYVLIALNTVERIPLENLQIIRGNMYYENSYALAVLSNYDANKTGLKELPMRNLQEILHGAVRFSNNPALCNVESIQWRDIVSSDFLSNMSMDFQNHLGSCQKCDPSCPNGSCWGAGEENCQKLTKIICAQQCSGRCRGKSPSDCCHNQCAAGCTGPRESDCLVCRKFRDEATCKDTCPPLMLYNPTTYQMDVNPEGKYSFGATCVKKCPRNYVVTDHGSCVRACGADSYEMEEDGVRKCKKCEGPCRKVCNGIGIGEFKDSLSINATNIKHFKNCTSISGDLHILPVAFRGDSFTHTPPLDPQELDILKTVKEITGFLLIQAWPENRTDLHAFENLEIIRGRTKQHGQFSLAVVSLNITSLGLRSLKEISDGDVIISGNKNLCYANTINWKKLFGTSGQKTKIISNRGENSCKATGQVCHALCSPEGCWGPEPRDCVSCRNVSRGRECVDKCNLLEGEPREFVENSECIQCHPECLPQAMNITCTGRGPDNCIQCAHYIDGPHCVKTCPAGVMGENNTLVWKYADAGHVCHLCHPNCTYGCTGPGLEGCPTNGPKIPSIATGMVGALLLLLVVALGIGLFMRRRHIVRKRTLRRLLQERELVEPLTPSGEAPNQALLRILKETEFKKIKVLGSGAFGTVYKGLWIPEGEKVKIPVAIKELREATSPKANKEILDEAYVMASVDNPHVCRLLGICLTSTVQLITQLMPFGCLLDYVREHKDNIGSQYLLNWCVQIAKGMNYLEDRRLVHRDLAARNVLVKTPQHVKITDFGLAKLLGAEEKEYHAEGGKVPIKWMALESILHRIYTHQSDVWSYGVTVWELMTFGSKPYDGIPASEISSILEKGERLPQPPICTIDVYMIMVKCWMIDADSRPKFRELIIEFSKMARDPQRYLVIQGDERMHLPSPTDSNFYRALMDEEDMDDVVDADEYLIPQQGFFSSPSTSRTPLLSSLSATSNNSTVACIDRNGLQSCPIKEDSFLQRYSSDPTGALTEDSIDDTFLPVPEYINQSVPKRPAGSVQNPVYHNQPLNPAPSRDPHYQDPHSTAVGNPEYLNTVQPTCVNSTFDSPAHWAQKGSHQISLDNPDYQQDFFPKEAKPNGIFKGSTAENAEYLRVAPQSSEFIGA

SMILES | IC50 [1, 6] [nM] | IC50 [1, 7] [nM] | IC50 [2, 8] [nM] | IC50 [2, 9] [nM] | IC50 [3, 10] [nM] | IC50 [3, 11] [nM] | IC50 [4, 12] [nM] | IC50 [4, 13] [nM] | IC50 [5, 14] [nM] | IC50 [5, 15] [nM]
O=S(=O)(C1CC1)n1cc(-c2nccc(Nc3cc(N[C@H]4CC[C@@H](F)CC4)c(-c4ccn(CCC(F)(F)F)n4)cn3)n2)cn1 [Example 306, N^2-(2-(1-(Cyclopropylsulfonyl)-1H-pyrazol-4-yl)pyrimidin-4-yl)-N^4-((1s,4s)-4-fluorocyclohexyl)-5-(1-(3,3,3-trifluoropropyl)-1H-pyrazol-3-yl)pyridine-2,4-diamine] |  | 1290 |  | 171 |  | 5.9 |  | 47.9 |  | 9.1
CCS(=O)(=O)n1ccc(-c2nccc(Nc3cc(N[C@H]4CC[C@@](C)(O)CC4)c(-c4ccn(C(F)F)n4)cn3)n2)n1 [Example 309, (1s,4s)-4-((5-(1-(Difluoromethyl)-1H-pyrazol-3-yl)-2-((2-(1-(ethylsulfonyl)-1H-pyrazol-3-yl)pyrimidin-4-yl)amino)pyridin-4-yl)amino)-1-methylcyclohexan-1-ol] | > 10000 | 5.5 | 343 | 460 | 29.9 | 4.9 | > 10000 | 42.9 | 3.8 | 4.4
COCn1cc(-c2nccc(Nc3cc(N[C@H]4CC[C@@](C)(O)CC4)c(-c4ccn(C(F)F)n4)cn3)n2)cn1 [Example 310, (1s,4s)-4-((5-(1-(Difluoromethyl)-1H-pyrazol-3-yl)-2-((2-(1-(methoxymethyl)-1H-pyrazol-4-yl)pyrimidin-4-yl)amino)pyridin-4-yl)amino)-1-methylcyclohexan-1-ol] | > 10000 |  | 36.8 | 0.1 | 19 |  | 237 |  | 4 | 
CN(C)C(=O)n1cc(-c2nccc(Nc3cc(N[C@H]4CC[C@@](C)(O)CC4)c(-c4ccn(C(F)F)n4)cn3)n2)cn1 [Example 311, 4-(4-((5-(1-(Difluoromethyl)-1H-pyrazol-3-yl)-4-(((1s,4s)-4-hydroxy-4-methylcyclohexyl)amino)pyridin-2-yl)amino)pyrimidin-2-yl)-N,N-dimethyl-1H-pyrazole-1-carboxamide] | > 10000 |  | 30.1 |  | 25.6 |  | 1020 |  | 3.5 | 
COc1ncc(-c2nccc(Nc3cc(N[C@H]4CC[C@@](C)(O)CC4)c(-c4ccn(C(F)F)n4)cn3)n2)cn1 [Example 312, (1s,4s)-4-((5-(1-(Difluoromethyl)-1H-pyrazol-3-yl)-2-((2′-methoxy-[2,5′-bipyrimidin]-4-yl)amino)pyridin-4-yl)amino)-1-methylcyclohexan-1-ol] | > 10000 |  | 353 |  | 6.6 | 1.3 | > 10000 |  | 2.4 | 1.3
CS(=O)(=O)c1ccccc1Nc1nccc(Nc2cc(N[C@H]3CC[C@@](C)(O)CC3)c(-c3ccn(C(F)F)n3)cn2)n1 [Example 313, (1s,4s)-4-((5-(1-(Difluoromethyl)-1H-pyrazol-3-yl)-2-((2-((2-(methylsulfonyl)phenyl)amino)pyrimidin-4-yl)amino)pyridin-4-yl)amino)-1-methylcyclohexan-1-ol] | > 10000 | 1610 | 74.5 | 39.9 | 12.6 |  | 627 | 146 | 2.1 | 
CC1(O)CCC(Nc2cc(Nc3ccnc(-c4cnn(C5CCCCO5)c4)n3)ncc2-c2ccn(C(F)F)n2)CC1 (stereo not drawn) [Example 314, (1s,4s)-4-((5-(1-(Difluoromethyl)-1H-pyrazol-3-yl)-2-((2-(1-(tetrahydro-2H-pyran-2-yl)-1H-pyrazol-4-yl)pyrimidin-4-yl)amino)pyridin-4-yl)amino)-1-methylcyclohexan-1-ol] | > 10000 | 595 | 300 | 133 | 1.9 | 0.5 | 1480 | 75.2 | 5.2 | 1.9
Cc1nn(S(=O)(=O)N(C)C)cc1-c1nccc(Nc2cc(N[C@H]3CC[C@@](C)(O)CC3)c(-c3ccn(C(F)F)n3)cn2)n1 [Example 315, 4-(4-((5-(1-(Difluoromethyl)-1H-pyrazol-3-yl)-4-(((1s,4s)-4-hydroxy-4-methylcyclohexyl)amino)pyridin-2-yl)amino)pyrimidin-2-yl)-N,N,3-trimethyl-1H-pyrazole-1-sulfonamide] | > 10000 | 14.2 | 11 | 6.3 | 1.1 | 0.5 | 37.4 | 5.4 | 1.9 | 0.6

More lines, now with the values ahead:

IC50 [1, 6] [nM] | IC50 [1, 7] [nM] | IC50 [2, 8] [nM] | IC50 [2, 9] [nM] | IC50 [3, 10] [nM] | IC50 [3, 11] [nM] | IC50 [4, 12] [nM] | IC50 [4, 13] [nM] | IC50 [5, 14] [nM] | IC50 [5, 15] [nM] | SMILES
38.9 | 0.2 | 0.3 | 0.2 | 0.2 | 0.1 | 0.2 | 0.1 | 0.4 | 0.3 | CN(C)C[C@H]1CC[C@@H](Nc2cc(Nc3ccnc(-c4cnn(S(=O)(=O)C5CC5)c4)n3)ncc2-c2cc(C(C)(C)O)n(C)n2)CC1 [Example 302, 2-(3-(6-((2-(1-(Cyclopropylsulfonyl)-1H-pyrazol-4-yl)pyrimidin-4-yl)amino)-4-(((1s,4s)-4-((dimethylamino)methyl)cyclohexyl)amino)pyridin-3-yl)-1-methyl-1H-pyrazol-5-yl)propan-2-ol]
 | 1.7 |  | 2.2 |  | 0.3 |  | 0.2 |  | 0.6 | COCn1ccc(-c2cnc(Nc3ccnc(-c4cnn(S(=O)(=O)C5CC5)c4)n3)cc2NC(C)C)n1 [Example 303, N^2-(2-(1-(Cyclopropylsulfonyl)-1H-pyrazol-4-yl)pyrimidin-4-yl)-N^4-isopropyl-5-(1-(methoxymethyl)-1H-pyrazol-3-yl)pyridine-2,4-diamine]
 | 355 |  | 340 |  | 1.8 |  | 0.8 |  | 1.1 | CC(C)Nc1cc(Nc2ccnc(-c3cnn(S(=O)(=O)C4CC4)c3)n2)ncc1-c1ccn(CCC(F)(F)F)n1 [Example 304, N^2-(2-(1-(Cyclopropylsulfonyl)-1H-pyrazol-4-yl)pyrimidin-4-yl)-N^4-isopropyl-5-(1-(3,3,3-trifluoropropyl)-1H-pyrazol-3-yl)pyridine-2,4-diamine]
 | 853 |  | 67.7 |  | 5.3 |  | 12 |  | 8 | O=S(=O)(C1CC1)n1cc(-c2nccc(Nc3cc(N[C@H]4CC[C@@H](F)CC4)c(-c4ccn(CC(F)(F)F)n4)cn3)n2)cn1 [Example 305, N^2-(2-(1-(Cyclopropylsulfonyl)-1H-pyrazol-4-yl)pyrimidin-4-yl)-N^4-((1s,4s)-4-fluorocyclohexyl)-5-(1-(2,2,2-trifluoroethyl)-1H-pyrazol-3-yl)pyridine-2,4-diamine]
3640 | 44.2 | 0.4 | 0.5 | 0.4 | 0.2 | 4.1 | 0.4 | 0.4 | 0.4 | CCS(=O)(=O)n1cc(-c2nccc(Nc3cc(N[C@H]4CC[C@@](C)(O)CC4)c(-c4ccn(C(F)F)n4)cn3)n2)cn1 [Example 308, (1s,4s)-4-((5-(1-(Difluoromethyl)-1H-pyrazol-3-yl)-2-((2-(1-(ethylsulfonyl)-1H-pyrazol-4-yl)pyrimidin-4-yl)amino)pyridin-4-yl)amino)-1-methylcyclohexan-1-ol]
